Reference: publication PMC10421376, “Simultaneous Determination of Five Iridoids of Picrorhiza scrophulariiflora in Rat Plasma Using UHPLC-ESI-MS/MS” (Molecules, 2023)
Read-outs that look alike come from different tables or passages of the source.

Experiments:
[1] = Pharmacokinetics of five iridoids in rat plasma after oral administration of PS extract (UHPLC-ESI-MS/MS); type: in vivo, SD (Sprague Dawley) rats
Experimental: Six adult male SD (Sprague Dawley) rats (220–250 g) were purchased from the Animal Experiment Center of Heilongjiang University of Chinese Medicine. The Animal Ethics Committee of Harbin Medical University approved the experimental protocol, which conformed to the principles for the Care and Use of Laboratory Animals. The experimental animals were fed under the following conditions: room temperature (20–25 °C), relative humidity (40–60%), 12 h of alternating day and night lighting, 12 h of fasting before the experiment, and free access to water. We calculated the dosage of SD rats using the standardized formula for body surface area (BSA). According to the Chinese Pharmacopoeia, the dosage of PS raw medicine for human use is 10 g. The dosage for rats is 0.9 g/kg.
The dried PS powder weighed 200 g and was extracted with eight times the amount of 75% ethanol at reflux three times for 2 h each time. The extracts were combined, filtered, distilled under reduced pressure until the alcoholic taste disappeared, and lyophilized with water. In our previous laboratory experiments, we used HPLC to determine the content of five analytes, namely Picroside-I (15.68 mg/g), Picroside-II (103.64 mg/g), Picroside-III (64.08 mg/g), minecoside (2.02 mg/g), and sweroside (12.28 mg/g). After freeze-drying, we dissolved the solid in a 5% sodium carboxymethyl cellulose solution and prepared a medicinal extract solution with a concentration of 0.3 g/mL.
A dose of 1 g/kg of body weight was administered to rats according to the pharmacopoeia and previous content results for the five analytes. Rat tail vein blood samples were collected in heparinized tubes before and 0.167, 0.333, 0.5, 0.75, 1, 2, 4, 6, 8, and 12 h after administration and centrifuged at 3500 rpm for 10 min. We obtained 100 µL of the upper layer of plasma and stored it at −20 °C for measurement.
The plasma samples were treated according to the method described in Section 3.3. The plasma samples were determined according to the chromatographic conditions described in Section 3.4 and chromatograms were recorded. The measured peak area ratios of the substances being measured and the IS were substituted into the accompanying standard curves on the same day. We also calculated the blood concentrations of Picroside-I (15.68 mg/g), Picroside-II (103.64 mg/g), Picroside-III (64.08 mg/g), minecoside (2.02 mg/g), and sweroside (12.28 mg/g), respectively. We determined the QC samples at the same time, allowing a maximum of two different concentrations of QC samples to exceed the theoretical value of ±15% of the RE% value.
The peak areas of Picroside-I, Picroside-II, Picroside-III, minecoside, sweroside, and IS in each sample were recorded. We calculated and substituted their ratios into the standard curve equation to obtain corresponding concentrations for the five substances being measured in the plasma of SD rats. The blood concentration data of each rat were processed separately to calculate the relevant pharmacokinetic parameters, and the mean and standard deviation of the parameters were further calculated. We calculated and plotted pharmacokinetic parameters including concentration–time curves (AUC0–t, AUC0–∞), average residence time (MRT), maximum plasma concentration (Cmax), time to reach the maximum concentration (Tmax), and half-time (t1/2) using pharmacokinetic software (DAS 2.0) with a non-atrial chamber model for blood concentration–time curves. All parameters were expressed as mean ± SD.

[2] = Stability of the analytes in rat plasma QC samples under storage and processing conditions; type: in vitro ADME; details: n = 6; for Short-Term Stability RE: room temperature 4 h; for Freeze-Thaw RE: three freeze-thaw cycles −20 °C/room temperature; for Long-Term Stability RE: −20 °C two weeks
Experimental: Stability refers to the chemical stability of the sample being tested in a given medium under certain external conditions. We obtained 100 µL of rat blank plasma and prepared low, medium, and high concentrations of the QC sample standard solutions, Picroside-I, Picroside-II, Picroside-III, minecoside, and sweroside, according to the method described in Section 3.3. As simulated biological samples, the following conditions were investigated: (1) Short-term stability (QC samples were left at room temperature for 4 h, which exceeded the sample preparation time); (2) long-term stability (QC samples were left at −20 °C for two weeks); (3) freeze-thaw stability (three freeze-thaw cycles at −20 °C/room temperature) and post-preparation stability (QC samples were left in a 4 °C auto sampling chamber for 24 h).

hyaluronidase = details: cited from earlier work
CXCR4 = tested on: CXCR4; parameters: method as in PMID 32016931; details: breast cancer cells; cited from earlier work
H9c2 = details: cardiac cell line H9c2; cited from earlier work
[3] = parameters: method as in PMID 27498779; details: mice, bile stasis-induced liver injury; cited from earlier work
[4] = male, Sprague-Dawley, rat, in vivo, po, 1 g/kg
[5] = rat plasma, oral PS extract 1 g/kg, n = 6, mean ± SD

| SMILES | AUC(0-inf) [1, 4] [ng·h/mL] | AUC(0-t) [1, 4] [ng·h/mL] | Cl [1, 4] [mL/min/kg] | Cmax [1, 4] [ng/mL] | MRT last [1, 4] [h] | Tmax [1, 4] [h] | Vd [1, 4] [L/kg] | half-life [1, 4] [h] | Short-Term Stability RE ([2]; high QC) [%] | Freeze-Thaw RE ([2]; high QC) [%] | Long-Term Stability RE ([2]; high QC) [%] | Short-Term Stability RE ([2]; low QC) [%] | Freeze-Thaw RE ([2]; low QC) [%] | Long-Term Stability RE ([2]; low QC) [%] | Short-Term Stability RE ([2]; medium QC) [%] | Freeze-Thaw RE ([2]; medium QC) [%] | Long-Term Stability RE ([2]; medium QC) [%] | other results |
| --- | --- | --- | --- | --- | --- | --- | --- | --- | --- | --- | --- | --- | --- | --- | --- | --- | --- | --- |
| O=C(/C=C/c1ccccc1)OC[C@H]1O[C@@H](O[C@@H]2OC=C[C@H]3[C@H](O)[C@@H]4O[C@]4(CO)[C@@H]23)[C@H](O)[C@@H](O)[C@@H]1O [Picroside-I] | 382 ± 29.4 | 361 ± 25.6 | 607.2 ± 290.6 | 114 ± 16.1 | 3.6 ± 0.2 | 1.1 ± 0.2 | 186.7 ± 17.436 | 2.4 ± 0.3 | 6.58 | −1.94 | 3.59 | 8.93 | 6.43 | 5.60 | 3.83 | −2.74 | −5.69 |  |
| COc1ccc(/C=C/C(=O)O[C@H]2[C@@H]3C=CO[C@@H](O[C@@H]4O[C@H](CO)[C@@H](O)[C@H](O)[C@H]4O)[C@@H]3[C@@]3(CO)O[C@@H]23)cc1O [Minecoside, minecoside] | 93.5 ± 22.6 | 78.9 ± 10.2 | 119.1 ± 39.7 | 21.1 ± 7.8 | 4.1 ± 0.7 | 1 ± 0.2 | 19.26 ± 4.77 | 5 ± 2.3 |  |  |  |  |  |  |  |  |  | Hyaluronidase inhibitory activity (hyaluronidase): hyaluronidase inhibitory activity; Effect on CXCR4 expression (CXCR4): inhibits the expression of CXCR4 |
| C=C[C@H]1[C@H](O[C@@H]2O[C@H](CO)[C@@H](O)[C@H](O)[C@H]2O)OC=C2C(=O)OCC[C@H]21 [Sweroside, sweroside] |  |  |  |  |  |  |  |  |  |  |  |  |  |  |  |  |  | AUC(0-t) ([1]; male, Sprague-Dawley, in vivo, rat plasma, oral PS extract 1 g/kg, n = 6, mean ± SD, read-out: AUC0–t): 261 ± 65.3 ng·h/mL; AUC(0-inf) ([1]; male, Sprague-Dawley, in vivo, rat plasma, oral PS extract 1 g/kg, n = 6, mean ± SD, read-out: AUC0–∞): 268 ± 70.8 ng·h/mL; Cmax ([1]; male, Sprague-Dawley, in vivo, rat plasma, oral PS extract 1 g/kg, n = 6, mean ± SD, read-out: Cmax): 63.7 ± 17.6 ng/mL; MRT last ([1]; male, Sprague-Dawley, in vivo, rat plasma, oral PS extract 1 g/kg, n = 6, mean ± SD, read-out: MRT0–t): 3.9 ± 0.3 h; Tmax ([1]; male, Sprague-Dawley, in vivo, rat plasma, oral PS extract 1 g/kg, n = 6, mean ± SD, read-out: Tmax): 2.1 ± 0.1 h; half-life ([1]; male, Sprague-Dawley, in vivo, rat plasma, oral PS extract 1 g/kg, n = 6, mean ± SD, read-out: t1/2 (converted)): 1.2 ± 0.3 h; Cl [1, 5]: 2015 ± 615.8 mL/min/kg; Vd [1, 5]: 785.1 ± 130.6 L/kg; Effect on aconitine toxicity to myoblasts (H9c2): reduce aconitine’s toxicity; Effect on pro-inflammatory responses and bile acid levels [3]: improves pro-inflammatory responses and bile acid levels |
| COc1cc(C(=O)O[C@H]2[C@@H]3C=CO[C@@H](O[C@@H]4O[C@H](CO)[C@@H](O)[C@H](O)[C@H]4O)[C@@H]3[C@@]3(CO)O[C@@H]23)ccc1O [Picroside-II] | 611 ± 246 | 604 ± 239 | 2873.3 ± 999.3 | 336 ± 92.3 | 2.3 ± 0.5 | 1.1 ± 0.1 | 796 ± 503.5 | 2.3 ± 1.5 | 4.47 | −1.47 | −2.19 | −4.99 | 7.08 | 8.69 | 8.53 | −7.21 | 1.37 | AUC(0-t) ([1]; male, Sprague-Dawley, rat, in vivo, po): 604 ± 239 ng·h/mL |
